Assay results reported in patent US7112585B2, “Pyrimidine derivatives as corticotropin releasing factor inhibitors” (Bristol-Myers Squibb Company, priority 2003, dated 2006).

What was measured:
[1] = target: T1, cloned human CRF-R1 receptors (Homo sapiens, UniProt P34998); assay: CRF-R1 Receptor Binding Assay (inhibition of 125I-ovine-CRF binding to cell membranes); design: key to activity: a: Ki≦100 nM; b: 100 nM<Ki≦500 nM; c: 500 nM<Ki≦5,000 nM; activity reported in percent inhibition at 10 μM; details: CRF assays; class d = activity only as percent inhibition at 10 μM (value not given)
T1 construct: the coding region was amplifies by PCR from start to stop codons; expressed in transfected cells; host or cells: 293EBNA (HEK 293 EBNA-1) cells, episomal vector phchCRFR, hygromycin-selected pool; membranes
T1 sequence (P34998 24-415): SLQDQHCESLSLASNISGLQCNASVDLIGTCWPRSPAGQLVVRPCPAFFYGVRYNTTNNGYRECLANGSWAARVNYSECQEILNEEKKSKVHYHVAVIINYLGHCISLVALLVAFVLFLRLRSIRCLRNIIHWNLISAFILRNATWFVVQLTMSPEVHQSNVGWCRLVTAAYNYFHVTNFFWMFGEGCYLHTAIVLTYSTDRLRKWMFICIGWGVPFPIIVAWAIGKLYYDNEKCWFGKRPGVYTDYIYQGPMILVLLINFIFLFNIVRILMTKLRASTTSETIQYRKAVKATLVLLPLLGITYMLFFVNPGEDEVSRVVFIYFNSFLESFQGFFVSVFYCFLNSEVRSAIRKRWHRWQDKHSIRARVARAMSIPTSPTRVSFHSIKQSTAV
Text: CRF-R1 Receptor Binding Assay for the Evaluation of Biological Activity
The following is a description of the isolation of cell membranes containing cloned human CRF-R1 receptors for use in a standard binding assay as well as a description of the assay itself.
Messenger RNA was isolated from human hippocampus. The mRNA was isolated from human hippocampus. The mRNA was reverse transcribed using oligo (dt) 12–18 and the coding region was amplifies by PCR from start to stop codons. The resulting PCR fragment was cloned into the EcORV site of pGEMV, from whence the insert was reclaimed using XhoI+XbaI and cloned into the XhoI+XbaI sites of vector pm3as (which contains a CMV promoter, the SV′t′ splice and early poly A signals, an Eptein-Barr viral origin of replication, and a hygromycin selectable marker). The resulting expression vector, called phchCRFR was transfected in 293EBNA cells and cells retaining the episome were selected in the presence of […] hygromycin. Cells surviving 4 weeks of selection in hygromycin were pooled, adapted to growth in suspension and used to generate membranes for the binding assay described below. Individual aliquots containing approximately 1×10^8 of the suspended cells were then centrifuged to form a pellet and frozen. For the binding assay a frozen pellet described above containing 293EBNA cells transfected with hCRFR1 receptors is homogenized in 10 mL of ice cold tissue buffer (50 mM HEPES buffer pH 7.0, containing 10 MM MgCl2, 2 mM EGTA, 1 μg/mL apotinin, 1 μg/mL leupeptin and 1 μg/mL pepstatin). The homoginate is centrifuged at 40,000×g for 12 min and the resulting pellet rehomogenized in 10 mL of tissue buffer. After another centrifugation at 40,000×g for 12 min, the pellet is resuspended to a protein concentration of 360 μg/mL to be used in the assay.
Binding assays are performed in 96 well plates; each well having a 300 μL capacity. To each well is added 50 μL of test drug dilutions (final concentration of drugs range from 10^−10–10^−5 M), 100 μL of ^125I-ovine-CRF (^125I-o-CRF) (final concentration 150 pM) and 150 μL of the cell homoginate described above. Plates are then allowed to incubate at room temperature for 2 hours before filtering the incubate over GF/F filters (presoaked with 0.3% polyethyleneimine) using an appropriate cell harvester. Filters are rinsed 2 times with ice cold assay buffer before removing individual filters and assessing them for radioactivity on a gamma counter.
Curves of the inhibition of ^125I-o-CRF binding to cell membranes at various dilutions of test drug are analyzed by the iterative curve fitting program LIGAND [P. J. Munson and D. Rodbard, Anal. Biochem., 107:220 (1980), which provides Ki values for inhibition which are then used to assess biological activity. […]
Messenger RNA was isolated from human hippocampus. The mRNA was isolated from human hippocampus. The mRNA was reverse transcribed using oligo (dt) 12–18 and the coding region was amplifies by PCR from start to stop codons. The resulting PCR fragment was cloned into the EcORV site of pGEMV, from whence the insert was reclaimed using XhoI+XbaI and cloned into the XhoI+XbaI sites of vector pm3as (which contains a CMV promoter, the SV′t′ splice and early poly A signals, an Eptein-Barr viral origin of replication, and a hygromycin selectable marker). The resulting expression vector, called phchCRFR was transfected in 293EBNA cells and cells retaining the episome were selected in the presence of […] hygromycin. Cells surviving 4 weeks of selection in hygromycin were pooled, adapted to growth in suspension and used to generate membranes for the binding assay described below. […]
A frozen pellet described above containing 293EBNA cells transfected with hCRFR1 receptors or the rat frontal cortex tissue dissected from frozen rat brains was prepared as the source of membranes expressing CRF1 receptors used in binding assays. […]

Row | SMILES | Ki [1] | melting point | activity [1]
1 | Cc1cc(C)c(Cc2nc(C)ncc2S(=O)(=O)c2ccc(OCc3ccccc3)cc2)c(C)c1 [Example 14, 5-(4-Benzyloxybenzenesulfonyl)-2-methyl-4-(2,4,6-trimethylbenzyl)-pyrimidine] | ≤ 100 nM | 166 to 168 °C | 
2 | Cc1cc(C)c(Nc2nc(C)ncc2S(=O)(=O)c2ccc(F)cc2)c(C)c1 [Example 15, [5-(4-Fluorobenzenesulfonyl)-2-methylpyrimidin-4-yl]-(2,4,6-trimethylphenyl)-amine] | 100 to 500 nM | 191 to 193 °C | 
3 | Cc1cc(C)c(Nc2nc(C)ncc2S(=O)(=O)c2ccc(N3CCOCC3)cc2)c(C)c1 [Example 16, [2-Methyl-5-(4-morpholin-4-yl-benzenesulfonyl)-pyrimidin-4-yl]-(2,4,6-trimethylphenyl)-amine] |  | 221 to 223 °C | d
4 | Cc1cc(C)c(Nc2nc(C)ncc2S(=O)(=O)c2ccc(-n3ccnc3)cc2)c(C)c1 [Example 18, [5-(4-Imidazol-1-yl-benzenesulfonyl)-2-methylpyrimidin-4-yl]-(2,4,6-trimethylphenyl)-amine] |  | 230 to 232 °C | d
5 | Cc1cc(C)c(Nc2nc(C)ncc2S(=O)(=O)c2ccc(N3CCCC3)cc2)c(C)c1 [Example 19, [2-Methyl-5-(4-pyrrolidin-1-yl-benzenesulfonyl)-pyrimidin-4-yl]-(2,4,6-trimethylphenyl)-amine] |  | 196 to 198 °C | d
6 | Cc1cc(C)c(Nc2nc(C)ncc2S(=O)(=O)c2ccc(NCc3ccccc3)cc2)c(C)c1 [Example 20, [5-(4-Benzylaminobenzenesulfonyl)-2-methylpyrimidin-4-yl]-(2,4,6-trimethylphenyl)-amine] | 100 to 500 nM | 200 to 202 °C | 
7 | Cc1cc(C)c(Nc2nc(C)ncc2S(=O)(=O)c2ccc(N(C)Cc3ccccc3)cc2)c(C)c1 [Example 21, {5-[4-(Benzylmethylamino)-benzenesulfonyl]-2-methylpyrimidin-4-yl}-(2,4,6-trimethylphenyl)-amine] | ≤ 100 nM | 146 to 148 °C | 
8 | Cc1cc(C)c(Nc2nc(C)ncc2S(=O)(=O)c2ccc(C#N)cc2)c(C)c1 [Example 22, 4-[2-Methyl-4-(2,4,6-trimethylphenylamino)-pyrimidine-5-sulfonyl]-benzonitrile] | 500 to 5000 nM | 258 to 260 °C | 
9 | Cc1ccc(S(=O)(=O)c2cnc(C)nc2Nc2c(C)cc(C)cc2C)cc1 [Example 23, [2-Methyl-5-(toluene-4-sulfonyl)-pyrimidin-4-yl]-(2,4,6-trimethylphenyl)-amine] | 100 to 500 nM | 202 to 204 °C | 
10 | Cc1cc(C)c(Nc2nc(C)ncc2S(=O)(=O)c2ccc(-c3cncnc3)cc2)c(C)c1 [Example 24, [2-Methyl-5-(4-pyrimidin-5-yl-benzenesulfonyl)-pyrimidin-4-yl]-(2,4,6-trimethylphenyl)-amine] |  | 210 to 212 °C | d
11 | Cc1cc(C)c(Nc2nc(C)ncc2S(=O)(=O)c2ccc(-c3ncccn3)cc2)c(C)c1 [Example 25, [2-Methyl-5-(4-pyrimidin-2-yl-benzenesulfonyl)-pyrimidin-4-yl]-(2,4,6-trimethylphenyl)-amine] | ≤ 100 nM | 215 to 217 °C | 
12 | Cc1cc(C)c(Nc2nc(C)ncc2S(=O)(=O)c2ccc(-c3ccncc3)cc2)c(C)c1 [Example 26, [2-Methyl-5-(4-pyridin-4-yl-benzenesulfonyl)-pyrimidin-4-yl]-(2,4,6-trimethylphenyl)-amine] | 500 to 5000 nM | 232 to 234 °C | 
13 | Cc1cc(C)c(Nc2nc(C)ncc2S(=O)(=O)c2ccc(-c3ccccn3)cc2)c(C)c1 [Example 27, [2-Methyl-5-(4-pyridin-2-yl-benzenesulfonyl)-pyrimidin-4-yl]-(2,4,6-trimethylphenyl)-amine] | ≤ 100 nM | 201 to 203 °C | 
14 | Cc1cc(C)c(Nc2nc(C)ncc2S(=O)(=O)c2ccc(-c3cccnc3)cc2)c(C)c1 [Example 28, [2-Methyl-5-(4-pyridin-3-yl-benzenesulfonyl)-pyrimidin-4-yl]-(2,4,6-trimethylphenyl)-amine] | 500 to 5000 nM | 190 to 192 °C | 
15 | Cc1cc(C)c(Nc2nc(C)ncc2S(=O)(=O)c2ccc(C3=NCCN3)cc2)c(C)c1 [Example 29, {5-[4-(4,5-Dihydro-1H-imidazol-2-yl)-benzenesulfonyl]-2-methyl-pyrimidin-4-yl}-(2,4,6-trimethylphenyl)-amine] |  | 240 to 242 °C | d
16 | Cc1cc(C)c(Nc2nc(C)ncc2S(=O)(=O)c2ccc(-c3ncc[nH]3)cc2)c(C)c1 [Example 30, {5-[4-(1H-Imidazol-2-yl)-benzenesulfonyl]-2-methyl-pyrimidin-4-yl}-(2,4,6-trimethylphenyl)-amine] |  | 282 to 284 °C | d
